Publication PMC4352439, “Safety Evaluation of Chinese Medicine Injections with a Cell Imaging-Based Multiparametric Assay Revealed a Critical Involvement of Mitochondrial Function in Hepatotoxicity” (Evidence-based Complementary and Alternative Medicine : eCAM, 2015)
Where “and” joins values, the source holds several entries; their conditions need not be identical. Equal values may be shown once. Read-outs that look alike come from different tables or passages of the source.

Columns and labels:
[1] = design: method as in earlier work; conditions: Operetta assay protocol; read-out: median concentration (IC50); cited from earlier work
HepG2 cells = assay: multiparametric cell-based HCA hepatotoxicity assay; design: species or system human; conditions: for IC50: HepG2, 24-hour incubation

SMILES | IC50 [1] | cell nucleuses (Hoechst 33342) in representative images (HepG2 cells; 3 μM) | mitochondrial mass (MS), intensity of Mitotracker Deep Red FM in representative images (HepG2 cells; 3 μM) | increase of plasma membrane permeability (PMP) (HepG2 cells; 30 μM) | IC50 (HepG2 cells; read-out: IC50 of cell number (CN)) | IC50 (HepG2 cells; read-out: IC50 of mitochondrial mass (MS)) | IC50 (HepG2 cells; read-out: IC50 of mitochondrial membrane potential (MMP)) | IC50 (HepG2 cells; read-out: IC50 of nuclear area (NA)) | IC50 (HepG2 cells; read-out: IC50 of plasma membrane permeability (PMP)) | increase of plasma membrane permeability (PMP) (HepG2 cells; 100 μM) | increase of nuclear area (NA) (HepG2 cells; 3 mM) | IC50 (HepG2 cells; listed as AAP, read-out: IC50 of cell number (CN)) | IC50 (HepG2 cells; listed as AAP, read-out: IC50 of mitochondrial mass (MS)) | IC50 (HepG2 cells; listed as AAP, read-out: IC50 of plasma membrane permeability (PMP)) | IC50 (HepG2 cells; Homo sapiens, HepG2, 24 h, read-out: IC50 of cell number (CN)) | IC50 (HepG2 cells; Homo sapiens, HepG2, 24 h, read-out: IC50 of mitochondrial mass (MS)) | IC50 (HepG2 cells; Homo sapiens, HepG2, 24 h, read-out: IC50 of plasma membrane permeability (PMP))
N#CC(C#N)=NNc1ccc(OC(F)(F)F)cc1 [FCCP, P-fluoromethoxyphenylhydrazone] | 5.2 µM | shrunk | increase | 17.5 fold | 5.18 µM | 7.02 µM | 0.77 µM and 0.768 µM | 0.642 µM | 25.7 µM | – | – | – | – | – | – | – | –
CC(=O)Nc1ccc(O)cc1 [acetaminophen] | 1300 µM | – | – | – | – | – | – | – | – | 61.4 fold | 25.7% | 1840 µM | 9780 µM | 7.7 µM | 1840 µM | 9780 µM | 10 µM
